Laboratory results taken from patent US20230357269A1 (LES LABORATOIRES SERVIER, priority 2020, published 2023).
pIC50: −log10 of the molar value.

Molecular target: human recombinant LRRK2 protein (Homo sapiens (Human), UniProt Q5S007)
Experiment: LRRK2 Kinase Activity Assay (ADP-Glo)
Assay type: biochemical
Conditions: LRRK2 wt; LRRKtide peptide and ATP substrates; 1h-incubation at 37° C.
Outline: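 Recombinant human LRRK2 acted on LRRKtide peptide and ATP for 1 h at 37 °C. ADP formed was detected by ADP-Glo luminescence (ATP depletion, then ADP-to-ATP conversion and luciferase). IC50s came from curve fits over 10 concentrations (N=2).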

Sequence of human recombinant LRRK2 protein (Q5S007 whole entry): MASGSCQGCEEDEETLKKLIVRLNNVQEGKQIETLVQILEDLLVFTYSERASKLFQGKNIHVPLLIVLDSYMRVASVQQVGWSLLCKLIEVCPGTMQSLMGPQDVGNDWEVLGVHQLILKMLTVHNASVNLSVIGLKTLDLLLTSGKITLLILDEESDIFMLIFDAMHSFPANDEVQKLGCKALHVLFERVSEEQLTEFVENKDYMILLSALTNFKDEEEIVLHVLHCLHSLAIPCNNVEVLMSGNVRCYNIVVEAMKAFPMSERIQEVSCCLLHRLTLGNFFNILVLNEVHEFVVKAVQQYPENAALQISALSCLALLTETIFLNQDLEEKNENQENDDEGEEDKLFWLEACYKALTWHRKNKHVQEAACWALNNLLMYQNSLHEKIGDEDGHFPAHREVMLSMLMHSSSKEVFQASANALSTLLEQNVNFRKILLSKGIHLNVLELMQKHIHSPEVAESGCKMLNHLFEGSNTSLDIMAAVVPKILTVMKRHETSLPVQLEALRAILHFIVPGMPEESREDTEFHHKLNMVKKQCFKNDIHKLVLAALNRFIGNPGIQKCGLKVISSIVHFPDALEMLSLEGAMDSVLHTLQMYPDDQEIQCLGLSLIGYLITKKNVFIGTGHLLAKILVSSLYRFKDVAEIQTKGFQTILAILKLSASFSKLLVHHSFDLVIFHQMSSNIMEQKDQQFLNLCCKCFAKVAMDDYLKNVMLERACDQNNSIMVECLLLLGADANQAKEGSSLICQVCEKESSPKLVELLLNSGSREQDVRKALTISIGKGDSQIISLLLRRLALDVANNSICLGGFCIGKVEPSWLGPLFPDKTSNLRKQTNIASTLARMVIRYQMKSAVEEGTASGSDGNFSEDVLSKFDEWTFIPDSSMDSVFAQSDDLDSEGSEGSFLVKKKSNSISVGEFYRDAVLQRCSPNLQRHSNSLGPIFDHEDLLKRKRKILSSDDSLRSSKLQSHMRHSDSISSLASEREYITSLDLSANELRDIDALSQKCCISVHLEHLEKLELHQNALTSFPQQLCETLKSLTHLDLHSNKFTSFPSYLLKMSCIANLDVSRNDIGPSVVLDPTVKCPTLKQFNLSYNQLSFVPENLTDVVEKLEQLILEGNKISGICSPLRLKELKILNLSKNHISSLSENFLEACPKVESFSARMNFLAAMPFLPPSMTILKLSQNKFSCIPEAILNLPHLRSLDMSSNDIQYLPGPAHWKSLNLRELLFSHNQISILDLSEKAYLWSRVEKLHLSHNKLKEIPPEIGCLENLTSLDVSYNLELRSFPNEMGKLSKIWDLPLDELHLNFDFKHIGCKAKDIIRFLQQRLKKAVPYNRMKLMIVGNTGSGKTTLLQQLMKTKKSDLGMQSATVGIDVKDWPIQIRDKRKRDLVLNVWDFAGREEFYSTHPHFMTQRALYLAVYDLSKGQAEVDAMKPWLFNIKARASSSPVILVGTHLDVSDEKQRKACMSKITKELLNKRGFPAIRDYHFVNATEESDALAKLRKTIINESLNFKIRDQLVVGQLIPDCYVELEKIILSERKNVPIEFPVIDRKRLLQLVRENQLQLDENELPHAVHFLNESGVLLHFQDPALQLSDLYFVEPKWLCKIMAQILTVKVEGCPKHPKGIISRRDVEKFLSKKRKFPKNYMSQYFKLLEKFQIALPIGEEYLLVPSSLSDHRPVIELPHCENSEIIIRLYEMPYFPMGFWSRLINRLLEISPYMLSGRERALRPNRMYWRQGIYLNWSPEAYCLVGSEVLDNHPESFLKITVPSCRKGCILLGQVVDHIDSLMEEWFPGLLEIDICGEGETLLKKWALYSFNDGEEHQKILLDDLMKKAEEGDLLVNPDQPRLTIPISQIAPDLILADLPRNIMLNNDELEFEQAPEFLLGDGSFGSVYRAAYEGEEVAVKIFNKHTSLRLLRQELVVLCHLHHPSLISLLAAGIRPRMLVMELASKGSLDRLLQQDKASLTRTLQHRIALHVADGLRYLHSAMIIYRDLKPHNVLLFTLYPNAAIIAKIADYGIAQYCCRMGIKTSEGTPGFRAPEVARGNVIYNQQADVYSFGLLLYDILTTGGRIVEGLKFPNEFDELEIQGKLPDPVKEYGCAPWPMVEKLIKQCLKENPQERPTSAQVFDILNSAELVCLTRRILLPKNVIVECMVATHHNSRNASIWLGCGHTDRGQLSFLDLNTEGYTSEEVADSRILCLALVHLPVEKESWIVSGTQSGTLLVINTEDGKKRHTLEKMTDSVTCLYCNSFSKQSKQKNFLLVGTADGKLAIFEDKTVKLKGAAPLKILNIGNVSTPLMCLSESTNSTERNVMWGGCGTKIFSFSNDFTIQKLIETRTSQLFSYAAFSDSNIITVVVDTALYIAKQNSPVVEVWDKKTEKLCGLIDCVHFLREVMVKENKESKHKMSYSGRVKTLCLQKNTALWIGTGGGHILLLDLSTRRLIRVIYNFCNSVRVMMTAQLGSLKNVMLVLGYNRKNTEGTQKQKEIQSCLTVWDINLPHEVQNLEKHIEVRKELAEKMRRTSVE

SMILES	pIC50
O=C1NCCCOc2ccc3[nH]nc(c3c2)-c2cc(cc(N3CCC(N4CCOCC4)CC3)c2)CO1 [Example 38, 4-[4-(morpholin-4-yl)piperidin-1-yl]-8,14-dioxa-10,19,20-triazatetracyclo[13.5.2.1^2,6.0^18,21]tricosa-1(20),2,4,6(23),15,17,21-heptaen-9-one]	> 8.00
COc1cc2nc(c1)-c1n[nH]c3ccc(cc13)O[C@H](C)CCNC(=O)OC2 [Example 127, (13R)-4-methoxy-13-methyl-8,14-dioxa-10,19,20,23-tetraazatetracyclo[13.5.2.1^2,6.0^18,21]tricosa-1(20),2,4,6(23),15,17,21-heptaen-9-one]	> 8.00
CC1CCNC(=O)OCc2cccc(c2)-c2n[nH]c3ccc(cc23)O1 (stereo not shown) [Example 50, 13-methyl-8,14-dioxa-10,19,20-triazatetracyclo[13.5.2.1^2,6.0^18,21]tricosa-1(20),2,4,6(23),15,17,21-heptaen-9-one]	> 8.00
CN1CCCNC(=O)OCc2cccc(c2)-c2n[nH]c3ccc1cc23 [Example 163, 14-methyl-8-oxa-10,14,19,20-tetraazatetracyclo[13.5.2.1^2,6.0^18,21]tricosa-1(20),2(23),3,5,15,17,21-heptaen-9-one]	> 8.00
C[C@@H]1CCNC(=O)OCc2cncc(c2)-c2n[nH]c3cc(F)c(cc23)O1 [Example 124, (13R)-16-fluoro-13-methyl-8,14-dioxa-4,10,19,20-tetraazatetracyclo[13.5.2.1^2,6.0^18,21]tricosa-1(20),2,4,6(23),15,17,21-heptaen-9-one]	> 8.00
O=C1NCCCOc2ccc3[nH]nc(c3c2)-c2cc(cc(C3=CCN(C4COC4)CC3)c2)CO1 [Example 57, 4-[1-(oxetan-3-yl)-1,2,3,6-tetrahydropyridin-4-yl]-8,14-dioxa-10,19,20-triazatetracyclo[13.5.2.1^2,6.0^18,21]tricosa-1(20),2,4,6(23),15,17,21-heptaen-9-one]	> 8.00
CC(C)N1CCN(c2cc3cc(c2)-c2n[nH]c4ccc(cc24)OCCCNC(=O)OC3)CC1 [Example 13, 4-[4-(propan-2-yl)piperazin-1-yl]-8,14-dioxa-10,19,20-triazatetracyclo[13.5.2.1^2,6.0^18,21]tricosa-1(20),2,4,6(23),15,17,21-heptaen-9-one]	> 8.00
C[C@@H]1CCNC(=O)OCc2cccc(c2)-c2n[nH]c3ccc(cc23)O1 [Example 63, (13R)-13-methyl-8,14-dioxa-10,19,20-triazatetracyclo[13.5.2.1^2,6.0^18,21]tricosa-1(20),2(23),3,5,15(22),16,18(21)-heptaen-9-one]	> 8.00
O=C1NCCCOc2ccc3[nH]nc(c3c2)-c2cc(cc(N3CCNCC3)c2)CO1 [Example 81, 4-(piperazin-1-yl)-8,14-dioxa-10,19,20-triazatetracyclo[13.5.2.1^2,6.0^18,21]tricosa-1(20),2(23),3,5,15(22),16,18(21)-heptaen-9-one]	> 8.00
O=C1NCCCOc2ccc3[nH]nc(c3c2)-c2cccc(n2)CO1 [Example 4, 8,14-dioxa-10,19,20,23-tetraazatetracyclo[13.5.2.1^2,6.0^18,21]tricosa-1(20),2,4, 6(23),15,17,21-heptaen-9-one]	> 8.00
CN(c1cc2cc(c1)-c1n[nH]c3ccc(cc13)OCCCNC(=O)OC2)C1COC1 [Example 52, 4-[methyl(oxetan-3-yl)amino]-8,14-dioxa-10,19,20-triazatetracyclo[13.5.2.1^2,6.0^18,21]tricosa-1(20),2,4,6(23),15,17,21-heptaen-9-one]	> 8.00
Cc1cc2[nH]nc3c2cc1O[C@H](C)CCNC(=O)OCc1cccc-3c1 [Example 139, (13R)-13,16-dimethyl-8,14-dioxa-10,19,20-triazatetracyclo[13.5.2.1^2,6.0^18,21]tricosa-1(20),2,4,6(23),15,17,21-heptaen-9-one]	> 8.00
C[C@@H]1CCNC(=O)OCc2cc(c[nH]c2=O)-c2n[nH]c3ccc(cc23)O1 [Example 144, (13R)-13-methyl-8,14-dioxa-4,10,19,20-tetraazatetracyclo[13.5.2.1^2,6.0^18,21]tricosa-1(20),2,6(23),15,17,21-hexaene-5,9-dione]	> 8.00
CO[C@@H]1CCN(c2cc3nc(n2)COC(=O)NCC[C@@H](C)Oc2ccc4[nH]nc-3c4c2)C1 [Example 137, (13R)-4-[(3R)-3-methoxypyrrolidin-1-yl]-13-methyl-8,14-dioxa-5,10,19,20,23-pentaazatetracyclo[13.5.2.1^2,6.0^18,21]tricosa-1(20),2,4,6(23),15,17,21-heptaen-9-one]	> 8.00
N#CCc1cc2cc(c1)-c1n[nH]c3ccc(cc13)OCCCNC(=O)OC2 [Example 77, 2-{9-oxo-8,14-dioxa-10,19,20-triazatetracyclo[13.5.2.1^2,6.0^18,21]tricosa-1(20),2(23),3,5,15(22),16,18(21)-heptaen-4-yl}acetonitrile]	> 8.00
O=C1NCCCOc2ccc3[nH]nc(c3c2)-c2cc(cc(C3CCOC3)c2)CO1 (stereo not shown) [Example 61, 4-(oxolan-3-yl)-8,14-dioxa-10,19,20-triazatetracyclo[13.5.2.1^2,6.0^18,21]tricosa-1(20),2,4,6(23),15,17,21-heptaen-9-one]	> 8.00

SMILES	pIC50
CC1OC(=O)NCCCOc2ccc3[nH]nc(c3c2)-c2cccc1c2 (stereo not shown) [Example 22, 7-methyl-8,14-dioxa-10,19,20-triazatetracyclo[13.5.2.1^2,6.0^18,21]tricosa-1(20), 2,4,6(23),15,17,21-heptaen-9-one]	> 8.00
Cc1cc2cc(c1)-c1n[nH]c3ccc(cc13)OCCCN(C)C(=O)OC2 [Example 54, 4,10-dimethyl-8,14-dioxa-10,19,20-triazatetracyclo[13.5.2.1^2,6.0^18,21]tricosa-1(20),2,4,6(23),15,17,21-heptaen-9-one]	> 8.00
O=C1NCCCOc2ccc3[nH]nc(c3c2)-c2csc(n2)CO1 [Example 147, 7,13-dioxa-4-thia-9,18,19,22-tetraazatetracyclo[12.5.2.1^2,5.0^17,20]docosa-1(19),2,5(22),14(21),15,17(20)-hexaen-8-one]	> 8.00
O=C1NCCC2(CC2)Oc2ccc3[nH]nc(c3c2)-c2cccc(c2)CO1 [Example 175, 8′,14′-dioxa-10′,19′,20′-triazaspiro[cyclopropane-1,13′-tetracyclo[13.5.2.1^2,6.0^18,21]tricosane]-1′(20′),2′(23′),3′,5′,15′(22′),16′,18′(21′)-heptaen-9′-one]	> 8.00
Cc1c(F)cc2cc1C(C)OC(=O)NCCCOc1ccc3[nH]nc-2c3c1 (stereo not shown) [Example 88, 4-fluoro-5,7-dimethyl-8,14-dioxa-10,19,20-triazatetracyclo[13.5.2.1^2,6.0^18,21]tricosa-1(20),2(23),3,5,15(22),16,18(21)-heptaen-9-one]	7.00 to 8.00
C[C@@H]1CCNC(=O)OCc2cc(ccc2C#N)-c2n[nH]c3ccc(cc23)O1 [Example 128, (13R)-13-methyl-9-oxo-8,14-dioxa-10,19,20-triazatetracyclo[13.5.2.1^2,6. 0^18,21]tricosa-1(20),2,4,6(23),15,17,21-heptaene-5-carbonitrile]	> 8.00
O=C1NCCCOc2ccc3[nH]nc(c3c2)-c2ccc(N3CCOCC3)c(c2)CO1 [Example 45, 5-(morpholin-4-yl)-8,14-dioxa-10,19,20-triazatetracyclo[13.5.2.1^2,6.0^18,21]tricosa-1(20),2,4,6(23),15,17,21-heptaen-9-one]	> 8.00
C[C@@H]1CCNC(=O)OCCn2ncc(n2)-c2n[nH]c3ccc(cc23)O1 [Example 159, (13R)-13-methyl-8,14-dioxa-4,5,10,19,20,23-hexaazatetracyclo[13.5.2.1^2,5.0^18,21]tricosa-1(20),2(23),3,15,17,21-hexaen-9-one]	> 8.00
C[C@@H]1CCNC(=O)OCc2cccc(c2)-c2n[nH]c3cc(Cl)c(cc23)O1 [Example 138, (13R)-16-chloro-13-methyl-8,14-dioxa-10,19,20-triazatetracyclo[13.5.2.1^2,6.0^18,21]tricosa-1(20),2,4,6(23),15,17,21-heptaen-9-one]	> 8.00
CN(C)Cc1cc2cc(c1)-c1n[nH]c3ccc(cc13)OCCCNC(=O)OC2 [Example 53, 4-[(dimethylamino)methyl]-8,14-dioxa-10,19,20-triazatetracyclo[13.5.2.1^2,6.0^18,21]tricosa-1(20),2,4,6(23),15,17,21-heptaen-9-one]	7.00 to 8.00
O=C1NCCCNc2ccc3[nH]nc(c3c2)-c2cccc(c2)CO1 [Example 141, 8-oxa-10,14,19,20-tetraazatetracyclo[13.5.2.1^2,6.0^18,21]tricosa-1(20),2(23), 3,5,15(22),16,18(21)-heptaen-9-one]	6.00 to 7.00
C[C@@H]1CCNC(=O)OCc2cccc(c2)-c2n[nH]c3ccc(nc23)O1 [Example 157, (13R)-13-methyl-8,14-dioxa-10,19,20,22-tetraazatetracyclo[13.5.2. 1^2,6.0^18,21]tricosa-1(20),2(23),3,5,15,17,21-heptaen-9-one]	> 8.00
Cc1cc2cc(c1F)C(C)OC(=O)NCCCOc1ccc3[nH]nc-2c3c1 (stereo not shown) [Example 90, 5-fluoro-4,7-dimethyl-8,14-dioxa-10,19,20-triazatetracyclo[13.5.2.1^2,6.0^18,21]tricosa-1(20),2(23),3,5,15(22),16,18(21)-heptaen-9-one]	> 8.00
Cc1cc2nc(n1)COC(=O)NCC[C@@H](C)Oc1ccc3[nH]nc-2c3c1 [Example 148, (13R)-4,13-dimethyl-8,14-dioxa-5,10,19,20,23-pentaazatetracyclo[13.5.2. 1^2,6.0^18,21]tricosa-1(20),2(23),3,5,15(22),16,18(21)-heptaen-9-one]	> 8.00
O=C1NCCCOc2ccc3[nH]nc(c3c2)-c2cc(cc(N3CCOCC3=O)c2)CO1 [Example 73, 4-(3-oxomorpholin-4-yl)-8,14-dioxa-10,19,20-triazatetracyclo[13.5.2. 1^2,6.0^18,21]tricosa-1(20),2(23),3,5,15(22),16,18(21)-heptaen-9-one]	> 8.00
